Values of other authors, collected in US20150216993A1 (priority 2012, published 2015).

Test system: organophosphate poisoning
Settings: in vivo

For `O/N=C/c1cc[n+](COC[n+]2ccc(/C=N/O)cc2)cc1` [obidoxime, obidoxime chloride], which “window of time in which the therapeutic is effective” value is on record?
The value was “about 10 minutes”.
